Reference: patent US20250154109A1, “SODIUM CHANNEL BLOCKING COMPOUNDS, DERIVATIVES THEREOF, AND METHODS OF THEIR USE” (LATIGO BIOTHERAPEUTICS, INC, priority 2022, published 2025)
Where two headings read alike, the source gives them in different places.

Target: human Nav1.8 (Homo sapiens, UniProt Q9Y5Y9)
Assay: SyncroPatch384PE assay (automated patch clamp)
Assay type: cell-based
Conditions: human Nav1.8/b3 CHO cells
[1] = inactivated state block (P2 measurement), read-out: P2 IC50
[2] = resting state block (P1 measurement), read-out: P1 IC50

Sequence of human Nav1.8 (Q9Y5Y9 whole entry): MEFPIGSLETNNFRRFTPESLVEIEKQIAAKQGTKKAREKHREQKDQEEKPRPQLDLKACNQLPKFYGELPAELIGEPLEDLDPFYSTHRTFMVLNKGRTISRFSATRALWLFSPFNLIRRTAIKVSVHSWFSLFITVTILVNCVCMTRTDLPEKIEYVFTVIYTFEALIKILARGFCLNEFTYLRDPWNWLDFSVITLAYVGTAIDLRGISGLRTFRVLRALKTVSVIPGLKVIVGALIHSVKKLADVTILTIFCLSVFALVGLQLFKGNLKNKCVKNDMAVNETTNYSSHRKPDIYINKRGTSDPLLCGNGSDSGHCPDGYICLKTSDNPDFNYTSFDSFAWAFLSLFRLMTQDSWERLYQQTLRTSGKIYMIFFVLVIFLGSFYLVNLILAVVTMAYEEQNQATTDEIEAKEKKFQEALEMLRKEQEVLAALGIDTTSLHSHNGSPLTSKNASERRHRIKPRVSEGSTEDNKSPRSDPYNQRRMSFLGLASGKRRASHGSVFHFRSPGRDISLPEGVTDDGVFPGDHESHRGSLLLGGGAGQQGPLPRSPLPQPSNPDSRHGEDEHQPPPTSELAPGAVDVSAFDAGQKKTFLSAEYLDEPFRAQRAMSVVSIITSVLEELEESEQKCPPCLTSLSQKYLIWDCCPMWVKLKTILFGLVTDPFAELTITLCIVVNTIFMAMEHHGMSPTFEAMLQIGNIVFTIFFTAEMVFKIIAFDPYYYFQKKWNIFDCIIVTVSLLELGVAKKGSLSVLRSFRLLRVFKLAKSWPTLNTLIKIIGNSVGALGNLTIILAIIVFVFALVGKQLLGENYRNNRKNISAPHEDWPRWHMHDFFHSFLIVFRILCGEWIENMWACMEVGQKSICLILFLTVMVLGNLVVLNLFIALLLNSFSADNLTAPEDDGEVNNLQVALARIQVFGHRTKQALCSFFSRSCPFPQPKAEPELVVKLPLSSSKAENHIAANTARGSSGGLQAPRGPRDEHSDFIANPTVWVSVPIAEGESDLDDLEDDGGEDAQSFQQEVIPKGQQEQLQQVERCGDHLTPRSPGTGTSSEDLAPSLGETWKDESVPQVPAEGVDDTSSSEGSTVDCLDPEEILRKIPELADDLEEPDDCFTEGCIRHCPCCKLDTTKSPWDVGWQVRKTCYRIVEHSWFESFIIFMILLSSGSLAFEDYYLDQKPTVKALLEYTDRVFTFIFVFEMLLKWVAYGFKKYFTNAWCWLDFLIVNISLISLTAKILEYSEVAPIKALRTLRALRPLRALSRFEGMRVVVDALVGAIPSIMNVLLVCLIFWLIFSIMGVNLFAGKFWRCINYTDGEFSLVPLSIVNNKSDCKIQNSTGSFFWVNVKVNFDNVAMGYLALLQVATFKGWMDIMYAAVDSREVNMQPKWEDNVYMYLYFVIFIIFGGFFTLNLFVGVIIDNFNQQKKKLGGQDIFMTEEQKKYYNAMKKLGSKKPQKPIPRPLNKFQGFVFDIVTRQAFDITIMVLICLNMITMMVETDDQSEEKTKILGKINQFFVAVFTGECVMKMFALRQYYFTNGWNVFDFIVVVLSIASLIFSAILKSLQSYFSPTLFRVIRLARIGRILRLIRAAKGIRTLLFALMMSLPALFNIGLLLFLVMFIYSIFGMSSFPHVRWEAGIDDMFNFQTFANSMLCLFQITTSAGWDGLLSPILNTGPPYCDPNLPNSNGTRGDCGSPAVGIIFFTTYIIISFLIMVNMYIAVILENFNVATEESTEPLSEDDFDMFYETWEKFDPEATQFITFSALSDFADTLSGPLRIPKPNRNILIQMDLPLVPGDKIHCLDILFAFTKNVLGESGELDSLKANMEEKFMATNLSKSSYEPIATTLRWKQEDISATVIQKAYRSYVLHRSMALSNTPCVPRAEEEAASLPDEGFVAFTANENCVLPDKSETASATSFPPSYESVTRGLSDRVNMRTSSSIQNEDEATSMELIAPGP

SMILES | IC50 [1] | IC50 [2]
Cc1c(C(F)(F)F)cnc(N2CCCC(F)(F)CC2)c1C(=O)Nc1cccc([S@@](C)(=O)=NC(=O)C(C)(C)N)c1 [Example 187, (R)-N-(3-(N-(2-amino-2-methylpropanoyl)-S-methylsulfonimidoyl)phenyl)-2-(4,4-difluoroazepan-1-yl)-4-methyl-5-(trifluoromethyl)nicotinamide] | ≤ 5 nM | ≤ 5 nM
Cc1c(C(F)(F)F)cnc(N2CCCC(F)(F)CC2)c1C(=O)Nc1cccc([S@@](C)(=O)=NC(=O)[C@H](C)O)c1 [Example 192, 2-(4,4-difluoroazepan-1-yl)-N-(3-((R)-N-((S)-2-hydroxypropanoyl)-S-methylsulfonimidoyl)phenyl)-4-methyl-5-(trifluoromethyl)nicotinamide] | ≤ 5 nM | ≤ 5 nM
Cc1c(C(F)(F)F)ncc(N2CCCC(F)(F)CC2)c1C(=O)Nc1cccc([S@](C)(=N)=O)c1 [Example 197, (R)-5-(4,4-difluoroazepan-1-yl)-3-methyl-N-(3-(S-methylsulfonimidoyl)phenyl)-2-(trifluoromethyl)isonicotinamide] | 50 to 100 nM | 50 to 100 nM
C[S@@](=N)(=O)c1cc(NC(=O)c2cc(Cl)c(C(F)(F)F)cc2N2CCCC(F)(F)CC2)ccn1 [Example 199, (R)-5-chloro-2-(4,4-difluoroazepan-1-yl)-N-(2-(S-methylsulfonimidoyl)pyridin-4-yl)-4-(trifluoromethyl)benzamide] | ≤ 5 nM | ≤ 5 nM
Cc1c(C(F)(F)F)cnc(N2CCCC(F)(F)CC2)c1C(=O)Nc1cccc([S@@](C)(=O)=NC(=O)CN2CC(F)(F)C2)c1 [Example 202, (R)-2-(4,4-difluoroazepan-1-yl)-N-(3-(N-(2-(3,3-difluoroazetidin-1-yl)acetyl)-S-methylsulfonimidoyl)phenyl)-4-methyl-5-(trifluoromethyl)nicotinamide] | ≤ 5 nM | ≤ 5 nM
CNCCN=[S@](C)(=O)c1cccc(NC(=O)c2c(N3CCCC(F)(F)CC3)ncc(-c3cnn(C)c3)c2C)c1 [Example 203, (R)-2-(4,4-difluoroazepan-1-yl)-4-methyl-5-(1-methyl-1H-pyrazol-4-yl)-N-(3-(S-methyl-N-(2-(methylamino)ethyl)sulfonimidoyl)phenyl)nicotinamide] | 5 to 50 nM | 5 to 50 nM
Cc1cc(C#N)nc(N2CCCC(F)(F)CC2)c1C(=O)Nc1ccnc([S@](C)(=N)=O)c1 [Example 204, (R)-6-cyano-2-(4,4-difluoroazepan-1-yl)-4-methyl-N-(2-(S-methylsulfonimidoyl)pyridin-4-yl)nicotinamide] | 5 to 50 nM | 5 to 50 nM
C[S@@+]([O-])c1cc(NC(=O)c2cc(Cl)c(C(F)(F)F)cc2N2CCCC(F)(F)CC2)ccc1F [Example 206, (R)-5-chloro-2-(4,4-difluoroazepan-1-yl)-N-(4-fluoro-3-(methylsulfinyl)phenyl)-4-(trifluoromethyl)benzamide] | ≤ 5 nM | ≤ 5 nM
C[S@](=N)(=O)c1cccc(NC(=O)c2c(N3CCCC(F)(F)CC3)cnc(C(F)(F)F)c2Cl)c1 [Example 207, (S)-3-chloro-5-(4,4-difluoroazepan-1-yl)-N-(3-(S-methylsulfonimidoyl)phenyl)-2-(trifluoromethyl)isonicotinamide] | 5 to 50 nM | 5 to 50 nM
C[S@@](=N)(=O)c1cccc(NC(=O)c2c(N3CCCC(F)(F)CC3)cnc(C(F)(F)F)c2Cl)c1 [Example 208, (R)-3-chloro-5-(4,4-difluoroazepan-1-yl)-N-(3-(S-methylsulfonimidoyl)phenyl)-2-(trifluoromethyl)isonicotinamide] | 5 to 50 nM | 5 to 50 nM
Cc1c(Br)cnc(N2CCCC(F)(F)CC2)c1C(=O)Nc1cccc([S@@](C)(=O)=NCCN)c1 [Example 209, (R)-N-(3-(N-(2-aminoethyl)-S-methylsulfonimidoyl)phenyl)-5-bromo-2-(4,4-difluoroazepan-1-yl)-4-methylnicotinamide 2,2,2-trifluoroacetate] | ≤ 5 nM | ≤ 5 nM
CNCCN=[S@](C)(=O)c1cccc(NC(=O)c2c(N3CCCC(F)(F)CC3)ncc(Br)c2C)c1 [Example 211, (R)-5-bromo-2-(4,4-difluoroazepan-1-yl)-4-methyl-N-(3-(S-methyl-N-(2-(methylamino)ethyl)sulfonimidoyl)phenyl)nicotinamide 2,2,2-trifluoroacetate] | ≤ 5 nM | ≤ 5 nM

Continued, values first:

IC50 [1] | IC50 [2] | SMILES
≤ 5 nM | ≤ 5 nM | Cc1c(C(F)(F)F)cnc(N2CCCC(F)(F)CC2)c1C(=O)Nc1cccc([S@@](C)(=O)=NC(=O)CN)c1 [Example 181, (R)-2-(4,4-difluoroazepan-1-yl)-N-(3-(N-glycyl-S-methylsulfonimidoyl)phenyl)-4-methyl-5-(trifluoromethyl)nicotinamide]
≤ 5 nM | ≤ 5 nM | Cc1c(C(F)(F)F)nnc(N2CCCC(F)(F)CC2)c1C(=O)Nc1cccc([S@@](C)(=O)=NC(=O)[C@@H](C)N)c1 [Example 183, N-(3-((R)-N-(D-alanyl)-S-methylsulfonimidoyl)phenyl)-3-(4,4-difluoroazepan-1-yl)-5-methyl-6-(trifluoromethyl)pyridazine-4-carboxamide]
≤ 5 nM | ≤ 5 nM | Cc1c(C(=O)Nc2cccc([S@@](C)(=O)=NC(=O)CN)c2)c(N2CCCC(F)(F)CC2)nc(C(F)(F)F)c1-c1cnn(C)c1 [Example 184, (R)-2-(4,4-difluoroazepan-1-yl)-N-(3-(N-glycyl-S-methylsulfonimidoyl)phenyl)-4-methyl-5-(1-methyl-1H-pyrazol-4-yl)-6-(trifluoromethyl)nicotinamide]
≤ 5 nM | ≤ 5 nM | Cc1c(C(=O)Nc2cccc([S@@](C)(=O)=NC(=O)[C@@H]3CCCN3)c2)c(N2CCCC(F)(F)CC2)nc(C(F)(F)F)c1-c1cnn(C)c1 [Example 190, N-(3-((R)-N-(L-prolyl)-S-methylsulfonimidoyl)phenyl)-2-(4,4-difluoroazepan-1-yl)-4-methyl-5-(1-methyl-1H-pyrazol-4-yl)-6-(trifluoromethyl)nicotinamide]
≤ 5 nM | ≤ 5 nM | Cc1c(C(=O)Nc2cccc([S@@](C)(=O)=NC(=O)CO)c2)c(N2CCCC(F)(F)CC2)nc(C(F)(F)F)c1-c1cnn(C)c1 [Example 191, (R)-2-(4,4-difluoroazepan-1-yl)-N-(3-(N-(2-hydroxyacetyl)-S-methylsulfonimidoyl)phenyl)-4-methyl-5-(1-methyl-1H-pyrazol-4-yl)-6-(trifluoromethyl)nicotinamide]
≤ 5 nM | ≤ 5 nM | Cc1c(C(F)(F)F)cnc(N2CCCC(F)(F)CC2)c1C(=O)Nc1cccc([S@@](C)(=O)=NC(=O)[C@@H](C)O)c1 [Example 193, 2-(4,4-difluoroazepan-1-yl)-N-(3-((R)-N-((R)-2-hydroxypropanoyl)-S-methylsulfonimidoyl)phenyl)-4-methyl-5-(trifluoromethyl)nicotinamide]
≤ 5 nM | ≤ 5 nM | CNCC(=O)N=[S@](C)(=O)c1cccc(NC(=O)c2c(N3CCCC(F)(F)CC3)ncc(C(F)(F)F)c2C)c1 [Example 194, (R)-2-(4,4-difluoroazepan-1-yl)-4-methyl-N-(3-(S-methyl-N-(methylglycyl)sulfonimidoyl)phenyl)-5-(trifluoromethyl)nicotinamide]
≤ 5 nM | ≤ 5 nM | Cc1c(C(F)(F)F)cnc(N2CCCC(F)(F)CC2)c1C(=O)Nc1cccc([S@@](C)(=O)=NC(=O)CO)c1 [Example 195, (R)-2-(4,4-difluoroazepan-1-yl)-N-(3-(N-(2-hydroxyacetyl)-S-methylsulfonimidoyl)phenyl)-4-methyl-5-(trifluoromethyl)nicotinamide]
≤ 5 nM | ≤ 5 nM | Cc1c(C#N)c(C(F)(F)F)nc(N2CCCC(F)(F)CC2)c1C(=O)Nc1cccc([S@@](C)(=O)=NCCN)c1 [Example 196, (R)-N-(3-(N-(2-aminoethyl)-S-methylsulfonimidoyl)phenyl)-5-cyano-2-(4,4-difluoroazepan-1-yl)-4-methyl-6-(trifluoromethyl)nicotinamide]
≤ 5 nM | ≤ 5 nM | Cc1c(C(F)(F)F)nnc(N2CCCC(F)(F)CC2)c1C(=O)Nc1cccc([S@@](C)(=O)=NC(=O)CN2CC(F)(F)C2)c1 [Example 198, (R)-3-(4,4-difluoroazepan-1-yl)-N-(3-(N-(2-(3,3-difluoroazetidin-1-yl)acetyl)-S-methylsulfonimidoyl)phenyl)-5-methyl-6-(trifluoromethyl)pyridazine-4-carboxamide]
100 to 200 nM | 100 to 200 nM | Cc1c(-c2cnn(C)c2)cnc(N2CCCC(F)(F)CC2)c1C(=O)Nc1ccnc([S@](C)(=N)=O)c1 [Example 200, (R)-2-(4,4-difluoroazepan-1-yl)-4-methyl-5-(1-methyl-1H-pyrazol-4-yl)-N-(2-(S-methylsulfonimidoyl)pyridin-4-yl)nicotinamide]
5 to 50 nM | 5 to 50 nM | Cc1c(C#N)cnc(N2CCCC(F)(F)CC2)c1C(=O)Nc1ccnc([S@](C)(=N)=O)c1 [Example 201, (R)-5-cyano-2-(4,4-difluoroazepan-1-yl)-4-methyl-N-(2-(S-methylsulfonimidoyl)pyridin-4-yl)nicotinamide]
≤ 5 nM | ≤ 5 nM | C[S@+]([O-])c1cc(NC(=O)c2cc(Cl)c(C(F)(F)F)cc2N2CCCC(F)(F)CC2)ccc1F [Example 205, (S)-5-chloro-2-(4,4-difluoroazepan-1-yl)-N-(4-fluoro-3-(methylsulfinyl)phenyl)-4-(trifluoromethyl)benzamide]
5 to 50 nM | 5 to 50 nM | Cc1c(-c2cnn(C)c2)cnc(N2CCCC(F)(F)CC2)c1C(=O)Nc1cccc([S@@](C)(=O)=NCCN)c1 [Example 210, (R)-N-(3-(N-(2-aminoethyl)-S-methylsulfonimidoyl)phenyl)-2-(4,4-difluoroazepan-1-yl)-4-methyl-5-(1-methyl-1H-pyrazol-4-yl)nicotinamide 2,2,2-trifluoroacetate]
